One data set has as its target SNHG14. Particulars: ASO.
For a further data set, the target named is APOL1. Particulars: ASO.
[1] abbreviates: Mouse Primary Neuronal Cell, 0.005 µM.

After the bases stand the sugars from the 5' end (letter, count) and the backbone: PS all phosphorothioate, else s phosphorothioate and o phosphodiester by linkage. Methylation of C is not given here. e = 2'-O-(2-methoxyethyl) (MOE); l = locked nucleic acid (LNA); k = constrained ethyl (cEt); d = 2'-deoxy (DNA)

Consider “AAAATCTCAACTACCATTT (sugars l6 d6 l2 d2 l3, PS)”, for which the target mRNA inhibition with SNHG14 (Human Neuronal Cell, 7.5 µM) worked out at 23%. Consider “AAAATCTCAACTACCATTTT (sugars lldldlddddddddlldlll, PS)”, for which the target mRNA inhibition with SNHG14 (Human Neuronal Cell, 7.5 µM) was found to be 24%. Turning to “AAAATTATTTATACACCATC (sugars ldldllddddddddlldlll, PS)”, the target mRNA inhibition with SNHG14 (Human Neuronal Cell, 7.5 µM) came to 59%. For the sequence “AAAATTATTTATACACCATC (sugars lldllldddddddlddllll, PS)”, the target mRNA inhibition with SNHG14 (Human Neuronal Cell, 7.5 µM) came to 52%. Still for that read-out and setting: with “AAAATTATTTATACACCATC (sugars lllldlddddddddldllll, PS)” the figure was 59%; with “AAAGATCATTCTCAACAA (sugars l1 d1 l1 d9 l6, PS)”, 61%; with “AAATCTCAACTACCATTTTT (sugars ldldddldddddddllldll, PS)”, 14%. Still for that read-out and setting: under “AAATCTCAACTACCATTTTT (sugars lldddllddddddlddllll, PS)” stands 29%; under “AAATTATTTATACACCATCA (sugars l4 d10 l1 d2 l3, PS)”, 66%. On to “AAATTATTTATACACCATCA (sugars llddldldddddddddllll, PS)”, for which the target mRNA inhibition with SNHG14 (Human Neuronal Cell, 7.5 µM) came out at 67%. For “AAATTATTTATACACCATCA (sugars lldlldldddddddldddll, PS)”, the target mRNA inhibition with SNHG14 (Human Neuronal Cell, 7.5 µM) turned out to be 71%.

As to “AAATTATTTATACACCATCA (sugars lllddllddddddlldddll, PS)”, in the data set with SNHG14 (Human Neuronal Cell, 7.5 µM), the target mRNA inhibition turned out to be 64%.

“AAATTGTCTACCTTCCT (sugars l2 d12 l3, PS)”: the target mRNA inhibition with SNHG14 (Human Neuronal Cell, 0.2 µM) is 29%; with SNHG14 (Human Neuronal Cell, 1 µM), 19%.

As for “AACCAATTATACTTACA (sugars l4 d11 l2, PS)”, the target mRNA inhibition with SNHG14 (Human Neuronal Cell, 0.2 µM) was determined as 40%; in the data set with SNHG14 (Human Neuronal Cell, 1 µM), 51%.

“AACTCTCACTGTAACTT (sugars l3 d11 l3, PS)”: the target mRNA inhibition with SNHG14 (Human Neuronal Cell, 0.2 µM) came to 32%; in the data set with SNHG14 (Human Neuronal Cell, 1 µM) it was 42%. As to “AACTGTTTATACCCTTT (sugars l4 d11 l2, PS)”, the target mRNA inhibition with SNHG14 (Human Neuronal Cell, 0.2 µM) is 51%; with SNHG14 (Human Neuronal Cell, 1 µM) it was 55%. Consider AATGCTCACACTAATT (sugars l4 d10 l2, PS), for which the target mRNA inhibition with SNHG14 (Human Neuronal Cell, 0.2 µM) worked out at 37%; with SNHG14 (Human Neuronal Cell, 1 µM), 54%. On to “AATTATTTATACACCAT (sugars l2 d11 l4, PS)”, for which the target mRNA inhibition with SNHG14 (Human Neuronal Cell, 0.2 µM) was 2%; in the data set with SNHG14 (Human Neuronal Cell, 1 µM) it was 32%. For “AATTATTTATACACCATCAT (sugars llddldddddddddldllll, PS)”, the target mRNA inhibition with SNHG14 (Human Neuronal Cell, 7.5 µM) was 70%. For the sequence “AATTATTTATACACCATCAT (sugars llldllddddddddlddlll, PS)”, in the data set with SNHG14 (Human Neuronal Cell, 7.5 µM), the target mRNA inhibition is 64%. For ACATCTCATACTTGCT (sugars l2 d10 l4, PS), the target mRNA inhibition was -10% with SNHG14 (Human Neuronal Cell, 0.2 µM); -5% with SNHG14 (Human Neuronal Cell, 1 µM); 8% with SNHG14 (Human Neuronal Cell, 5 µM); 96% in the data set with SNHG14 (setting [1]). As to ACATCTCATACTTGCT (sugars l2 d12 l2, PS), the target mRNA inhibition in the data set with SNHG14 (Human Neuronal Cell, 0.2 µM) is -13%; with SNHG14 (Human Neuronal Cell, 1 µM), -7%; with SNHG14 (Human Neuronal Cell, 5 µM), 4%; in the data set with SNHG14 (setting [1]) it was 93.9%. Turning to ACATGTCCCTTTATAT (sugars l2 d12 l2, PS), the target mRNA inhibition in the data set with SNHG14 (Human Neuronal Cell, 0.2 µM) was -9%; in the data set with SNHG14 (Human Neuronal Cell, 1 µM), -2%; in the data set with SNHG14 (Human Neuronal Cell, 5 µM), 15%. On to ACATGTCCCTTTATAT (sugars l3 d10 l3, PS), for which the target mRNA inhibition with SNHG14 (Human Neuronal Cell, 0.2 µM) was 1%; with SNHG14 (Human Neuronal Cell, 1 µM), -13%; with SNHG14 (Human Neuronal Cell, 5 µM), 6%; in the data set with SNHG14 (setting [1]), 88.2%. Take “ACCTACATCTCATACTT (sugars l2 d13 l2, PS)”: the target mRNA inhibition in the data set with SNHG14 (Human Neuronal Cell, 0.2 µM) was 3%; in the data set with SNHG14 (Human Neuronal Cell, 1 µM) it was -18%; with SNHG14 (Human Neuronal Cell, 5 µM), 7%; in the data set with SNHG14 (setting [1]), 88.6%. On to “ACCTACATCTCATACTT (sugars l3 d11 l3, PS)”, for which the target mRNA inhibition with SNHG14 (Human Neuronal Cell, 0.2 µM) was 1%; in the data set with SNHG14 (Human Neuronal Cell, 1 µM), -10%; in the data set with SNHG14 (Human Neuronal Cell, 5 µM), 6%; with SNHG14 (setting [1]), 94.2%. Take ACTCTGCAATACACCA (sugars l3 d10 l3, PS): the target mRNA inhibition with SNHG14 (Human Neuronal Cell, 0.2 µM) turned out to be 52%; with SNHG14 (Human Neuronal Cell, 1 µM), 56%.

With “ACTCTGCAATACACCAA (sugars l2 d1 l2 d9 l3, PS)”, in the data set with SNHG14 (Human Neuronal Cell, 7.5 µM), the target mRNA inhibition was 55%. Consider “ACTCTGCAATACACCAA (sugars l2 d11 l4, PS)”, for which, in the data set with SNHG14 (Human Neuronal Cell, 7.5 µM), the target mRNA inhibition came out at 59%. “ACTCTGCAATACACCAA (sugars lddldddddddldldll, PS)”: the target mRNA inhibition with SNHG14 (Human Neuronal Cell, 7.5 µM) came out at 66%.

“ACTCTGCAATACACCAA (sugars lldlddddddddlldll, PS)”: the target mRNA inhibition with SNHG14 (Human Neuronal Cell, 7.5 µM) is 65%. With ACTCTTTAGATTCATC (sugars l2 d10 l4, PS), the target mRNA inhibition with SNHG14 (Human Neuronal Cell, 0.2 µM) was found to be 53%; with SNHG14 (Human Neuronal Cell, 1 µM) it was 44%.

“ACTGTTTATACCCTTTC (sugars l2 d9 l1 d3 l2, PS)”: the target mRNA inhibition with SNHG14 (Human Neuronal Cell, 7.5 µM) stood at 49%. Turning to “ACTGTTTATACCCTTTC (sugars ldddlddddddlddlll, PS)”, the target mRNA inhibition with SNHG14 (Human Neuronal Cell, 7.5 µM) is 53%. “ACTGTTTATACCCTTTC (sugars ldlddddddddldldll, PS)”: the target mRNA inhibition in the data set with SNHG14 (Human Neuronal Cell, 7.5 µM) is 63%.

Turning to “ACTGTTTATACCCTTTCC (sugars l1 d3 l1 d11 l2, PS)”, the target mRNA inhibition with SNHG14 (Human Neuronal Cell, 7.5 µM) was 49%. As for “ACTGTTTATACCCTTTCC (sugars lddldlddddddddddll, PS)”, in the data set with SNHG14 (Human Neuronal Cell, 7.5 µM), the target mRNA inhibition came out at 53%. Take “ACTTCCAGATTTCTACA (sugars l2 d11 l4, PS)”: the target mRNA inhibition was 54% with SNHG14 (Human Neuronal Cell, 0.2 µM) and 63% with SNHG14 (Human Neuronal Cell, 1 µM). Regarding AGACTAATCCTCTTAA (sugars l3 d10 l3, PS), the target mRNA inhibition stood at 38% in the data set with SNHG14 (Human Neuronal Cell, 0.2 µM) and 52% with SNHG14 (Human Neuronal Cell, 1 µM).

As to “AGATCATTCTCAACAATTA (sugars ldldlldddddddddddll, PS)”, the target mRNA inhibition with SNHG14 (Human Neuronal Cell, 7.5 µM) worked out at 57%.

For “AGCAACATTATTAACCAC (sugars llldlddddddddlddll, PS)”, in the data set with SNHG14 (Human Neuronal Cell, 7.5 µM), the target mRNA inhibition is 46%. “TGTTCTAACTCTTGGG (sugars kkkddddkekeddddd, PS)”: the target mRNA inhibition in the data set with APOL1 (A431, 2 µM) is 88%.

Consider “TTATACCAGTGTCTTC (sugars kddddkekekeddddd, PS)”, for which the target mRNA inhibition with APOL1 (A431, 2 µM) was determined as 82%. Regarding “TTATATTTGATCCTCA (sugars k2 d4 e4 k2 d4, PS)”, the target mRNA inhibition turned out to be 0% with APOL1 (A431, 0.0156 µM); 30% in the data set with APOL1 (A431, 0.0625 µM); 61% with APOL1 (A431, 0.25 µM); 87% in the data set with APOL1 (A431, 1 µM); 91% in the data set with APOL1 (A431, 2 µM). As for “TTATATTTGATCCTCA (sugars kdddddkekekddddd, PS)”, the target mRNA inhibition with APOL1 (A431, 2 µM) was 82%. For “TTATATTTGATCCTCA (sugars kkdddddkekeddddd, PS)”, the target mRNA inhibition with APOL1 (A431, 0.0156 µM) was 7%; with APOL1 (A431, 0.0625 µM), 38%; in the data set with APOL1 (A431, 0.25 µM) it was 74%; in the data set with APOL1 (A431, 1 µM) it was 92%; in the data set with APOL1 (A431, 2 µM), 96%. Regarding “TTATATTTGATCCTCA (sugars kkkddddkekekdddd, PS)”, the target mRNA inhibition with APOL1 (A431, 2 µM) is 92%. On the same count and under the same terms, with “TTATGAAATTATTGGT (sugars kkddddekekeddddd, PS)” the figure was 74%; with “TTATGAAATTATTGGT (sugars kkddddkekekddddd, PS)”, 82%. For the sequence “TTATGAAATTATTGGT (sugars kkddddkekekkdddd, PS)”, in the data set with APOL1 (A431, 2 µM), the target mRNA inhibition amounted to 63%. “TTATGAAATTATTGGT (sugars kkkddddkekekdddd, PS)”: the target mRNA inhibition with APOL1 (A431, 2 µM) amounted to 86%.

In the case of TTATGGAATTGCAGAT (sugars k4 d9 k3, PS), the target mRNA inhibition in the data set with APOL1 (A431, 0.0625 µM) was 38%; with APOL1 (A431, 0.25 µM), 67%; with APOL1 (A431, 1 µM) it was 86%. For “TTATTCTCATGGTACA (sugars kkkddddkekekdddd, PS)”, the target mRNA inhibition with APOL1 (A431, 2 µM) was 53%. Turning to “TTCTATTAGAGGGCTA (sugars k2 d4 e3 k2 d5, PS)”, the target mRNA inhibition with APOL1 (A431, 2 µM) stood at 87%. On the same count and under the same terms, with “TTCTATTAGAGGGCTA (sugars k3 d4 k3 e1 d5, PS)” the figure was 85%; with “TTCTATTAGAGGGCTA (sugars kekddddeekkddddd, PS)”, 94%. Take “TTCTATTAGAGGGCTA (sugars kkdddddkekeddddd, PS)”: the target mRNA inhibition with APOL1 (A431, 0.0156 µM) was determined as 26%; with APOL1 (A431, 0.0625 µM) it was 56%; with APOL1 (A431, 0.25 µM), 81%; in the data set with APOL1 (A431, 1 µM), 92%; in the data set with APOL1 (A431, 2 µM), 94%. “TTCTATTAGAGGGCTA (sugars kkkddddkdkdkdddd, PS)”: the target mRNA inhibition with APOL1 (A431, 2 µM) was 78%. Turning to “TTCTATTAGAGGGCTA (sugars kkkddddkekeddddd, PS)”, the target mRNA inhibition with APOL1 (A431, 2 µM) came to 91%. Consider “TTCTCATGGTACAGGA (sugars k2 d4 e3 k2 d5, PS)”, for which the target mRNA inhibition in the data set with APOL1 (A431, 2 µM) stood at 86%.

Consider “TTCTCATGGTACAGGA (sugars k2 d4 e4 k2 d4, PS)”, for which, in the data set with APOL1 (A431, 2 µM), the target mRNA inhibition came out at 80%. On the same count and under the same terms, with “TTCTCATGGTACAGGA (sugars kkddddkdkdkddddd, PS)” the figure was 89%. For the sequence TTCTTGATGTGGTGGG (sugars k4 d9 k3, PS), the target mRNA inhibition came to 58% with APOL1 (A431, 0.0625 µM); 82% in the data set with APOL1 (A431, 0.25 µM); 91% with APOL1 (A431, 1 µM).

With TTGGTTCAAAAGCAGC (sugars k4 d9 k3, PS), the target mRNA inhibition with APOL1 (A431, 0.0625 µM) amounted to 72%; with APOL1 (A431, 0.25 µM), 87%; with APOL1 (A431, 1 µM), 92%.

Regarding “TTGTAAGTGCAACCAA (sugars kkddddkdkdkddddd, PS)”, in the data set with APOL1 (A431, 2 µM), the target mRNA inhibition came to 74%.

“TTGTAAGTGCAACCAA (sugars kkddddkekekddddd, PS)”: in the data set with APOL1 (A431, 2 µM), the target mRNA inhibition came to 69%. Take TTGTCTTGCAAGGTTG (sugars k4 d9 k3, PS): the target mRNA inhibition with APOL1 (A431, 0.0625 µM) was determined as 55%; with APOL1 (A431, 0.25 µM), 69%; with APOL1 (A431, 1 µM), 85%.

Take “TTTAAACTCAGGTGAC (sugars kkddddkekekkdddd, PS)”: in the data set with APOL1 (A431, 2 µM), the target mRNA inhibition was determined as 16%. For the sequence TTTTGTTGCACCCTTG (sugars k4 d9 k3, PS), the target mRNA inhibition in the data set with APOL1 (A431, 0.0625 µM) stood at 76%; in the data set with APOL1 (A431, 0.25 µM), 87%; in the data set with APOL1 (A431, 1 µM) it was 92%.
